{"source": "patent US20260248126A1", "about": "“BIOCIDE” (PURGOS APS, priority 2020, published 2026)", "key": {"Bacillus cereus ISI 842": {"system": "Bacillus cereus ISI 842", "assay": "Minimal inhibitory concentration (MIC), microtiter plate", "format": "cell-based", "description": "(§1) For the tested substance. the stock solution was 10%. Minimum inhibitory concentrations (MICs) are defined as the lowest concentration of an antimicrobial that will inhibit the visible growth of a microorganism after a standardized incubation. In the present study, MIC assay was performed by pipetting robot. The principle is that an indicator microorganism at a defined cell density is cultured with a range of concentrations of the test compound, one concentration pr. well in a row on the microtiter plate. For bacteria and yeasts the minimal inhibitory concentration was detected as no increase of optical density (OD), for moulds microtiter plates were read visually. Each indicator organism is tested in duplicate and the MIC is calculated as the average of the two determinations. The tested concentrations of the antimicrobial substances were 2-fold dilutions from 5%. All indicator organisms (see Table 2.) were pre-cultivated in a suitable growth medium and diluted in the same medium to give a final concentration in the assay of ~1×10^3 cfu/ml. The microtiter plates were incubated under specific incubation conditions (see Table 3). [table]"}, "[1]": {"system": "Debaryomyces hansenii ISI 12", "assay": "Minimal inhibitory concentration (MIC), microtiter plate", "format": "cell-based", "description": "as §1"}, "[2]": {"system": "Lactobacillus brevis ISI 2269", "assay": "Minimal inhibitory concentration (MIC), microtiter plate", "format": "cell-based", "description": "as §1"}, "[3]": {"system": "Leuconostoc mesenteroides ISI 504", "assay": "Minimal inhibitory concentration (MIC), microtiter plate", "format": "cell-based", "description": "as §1"}, "[4]": {"system": "Listeria monocytogenes ISI 22", "assay": "Minimal inhibitory concentration (MIC), microtiter plate", "format": "cell-based", "description": "as §1"}, "[5]": {"system": "Pseudomonas aeruginosa ISI 1462", "assay": "Minimal inhibitory concentration (MIC), microtiter plate", "format": "cell-based", "description": "as §1"}, "[6]": {"system": "Streptococcus termophilus ISI 1563", "assay": "Minimal inhibitory concentration (MIC), microtiter plate", "format": "cell-based", "description": "as §1"}, "[7]": {"system": "Canidida albicans ISI 1226", "assay": "Minimum bactericidal concentration (MBC), outgrowth from MIC plates", "format": "cell-based, Candida albicans", "source_text": "Even when no growth is detectable in the MIC tests, it is possible that the microorganisms have survived the treatment i.e., they are not killed but just prevented from growing. In order to test for survivors, MBC plates were subsequently made from the MIC plates."}, "Murine norovirus": {"system": "Murine norovirus", "assay": "Antiviral activity, ASTM E1052 Kill Time Screen test", "format": "cell-based", "conditions": "in 60 seconds; from log reduction 0.34"}, "[8]": {"system": "Coniophora puteana. BAM Ebw. 15", "assay": "EN 113 test against wood destroying basidiomycetes (impregnated Scots pine sapwood)", "format": "cell-based"}, "[9]": {"system": "Gloeophyllum trabeum. BAM Ebw. 109", "assay": "EN 113 test against wood destroying basidiomycetes (impregnated Scots pine sapwood)", "format": "cell-based"}, "[10]": {"system": "Coriolus versicolor. CTB 863 A", "assay": "EN 113 test against wood destroying basidiomycetes (impregnated beech)", "format": "cell-based"}, "Acute oral toxicity LD50": {"assay": "Acute oral toxicity LD50", "format": "in vivo", "conditions": "worked out from rat LD50 4250 mg/kg"}, "[11]": {"system": "selected typical species of contaminants", "assay": "Substitution of conventional biocides with NBDA in product recipes: biocidal function (LuminUltra test, 32° C. incubation, Examples 3-6)", "format": "cell-based", "source_text": "Provision and test of the N-sample can be optional.\nIdeally, the T, C and N-samples are provided and stored using methods, protocols, raw materials, conditions and the like, which are very close, and ideally identical, mutatis mutandis. In particular, the samples should be subjected to similar or identical microbial contamination during their provision, and or storage if possible.\nSamples, such as test-, control- and/or negative control samples are provided according to Example 3. To assess the effect of the biocide(s), microbial contamination is measured, such as according to Example 6, or other conventional methods known in the art.\nIn short, samples are exposed to microbial contamination (microbial stress test) e.g., by opening a lid and closing it for a defined period of time, or other operations, mimicking a conventional user situation. Alternatively, samples can be inoculated with defined quantities of microorganisms, such as one or more indicator microorganism.\nThe samples can be divided into different aliquots, and incubated for selected periods at one or more relevant temperatures, such as e.g., one or more of 4° C., room temperature (RT, usually 20° C., 22° C., or 25° C.), 30° C., 32° C., 37° C., 40° C., and/or 60° C.), simulating e.g., appropriate storage, processing and usage conditions.\nMicrobial contamination of control, test and/or negative control samples can be determined according to Example 6.\nATP, such as intracellular ATP is measured using a commercially available system, such as provided by LumiUltra®, in particular a method using luminase (Aqua Tools, see details below).\nIn short, a buffering solution and Luminase enzyme are mixed. After daily ATP standard calibration, an aliquot, such as 1 ml of sample is transferred to an 1 ml extraction tube. After dilution in UltraLute resin, the total ATP (content can be established in the luminescence measuring device. 2) 1 ml sample is dissolved in LumiSolve stabilizing agent. […] For further details, see e.g., Aqua Tools (78300 Poissy, France) Quick reference guide QuenchGone21™ Speciality Test Kit QG21S-50/QG21St-100 2G."}, "[12]": {"conditions": "10% N-BDA in water; cited from earlier work"}}}
{"molecule": "CCCCN(CCO)CCO", "note": "[NBDA, N-butyldiethanolamine]", "values": [{"measurement": "MIC (%)", "setting": "Bacillus cereus ISI 842", "result": 1.25, "unit": "%"}, {"measurement": "MIC (%)", "setting": "[1]", "result": 1.25, "unit": "%"}, {"measurement": "MIC (%)", "setting": "[2]", "result": 0.16, "unit": "%"}, {"measurement": "MIC (%)", "setting": "[3]", "result": 0.31, "unit": "%"}, {"measurement": "MIC (%)", "setting": "[4]", "result": 1.25, "unit": "%"}, {"measurement": "MIC (%)", "setting": "[5]", "result": 0.63, "unit": "%"}, {"measurement": "MIC (%)", "setting": "[6]", "result": 0.63, "unit": "%"}, {"measurement": "MBC(%)", "setting": "[7]", "result": 1.25, "unit": "%"}, {"measurement": "Norovirus eliminated / destroyed", "setting": "Murine norovirus", "result": 54, "unit": "%"}, {"measurement": "Toxic value, Sol. conc.", "setting": "[8]", "result": ">1.43", "unit": "% w/w"}, {"measurement": "Toxic value, Sol. conc.", "setting": "[9]", "result": "1.01-1.43 % w/w"}, {"measurement": "fungicide effect, preventing wood destruction", "setting": "[9]; concentrations of 0.36%, 0.51%, 0.72%, 1.01% and 1.43%", "result": "effective as a fungicide for preventing wood destruction"}, {"measurement": "Toxic value, Sol. conc.", "setting": "[10]", "result": ">2.20", "unit": "% w/w"}, {"measurement": "human consummation equivalent to LD50", "setting": "Acute oral toxicity LD50", "result": 319, "unit": "gram pr 75 kg"}, {"measurement": "biocidal effect vs normal biocide package", "setting": "[11]; Styrene-Butadiene-Rubber (SBR)-emulsion, MIT and/or BIT replaced (Example 16)", "result": "comparable and better than the normal biocide package"}, {"measurement": "biocidal effect vs benzalkonium chloride", "setting": "[11]; algae removing compound, 1-5% (Example 9)", "result": "comparable or even surpassing benzalkonium chloride in function"}, {"measurement": "biocidal effect vs benzalkonium chloride", "setting": "[11]; circulating heat-transfer systems, 1-5% (Example 13)", "result": "comparable to benzalkonium chloride"}, {"measurement": "biocidal effect vs normal biocide package", "setting": "[11]; combination products: dispersions, emulsions, suspensions (Example 19)", "result": "comparable and better than the normal biocide package"}, {"measurement": "preservation effect vs food preservatives", "setting": "[11]; food, comparable amounts (Example 40)", "result": "shows compatibility and suitable preservation effect(s)"}, {"measurement": "biocidal effect vs normal biocide package", "setting": "[11]; hand cleanser (Example 37)", "result": "comparable or even better than the normal biocide package"}, {"measurement": "biocidal effect vs conventional biocide", "setting": "[11]; liquid dishwashing compound, MIT and/or BIT replaced with 0.01-1% (Example 7)", "result": "comparable to or even surpassing the conventional biocide"}, {"measurement": "biocidal effect vs benzalkonium chloride", "setting": "[11]; liquid disinfection compound for pipes, 1-5% (Example 11)", "result": "comparable to benzalkonium chloride"}, {"measurement": "biocidal effect vs benzalkonium chloride and glutaraldehyde", "setting": "[11]; liquid disinfection compound for stables, 1-5% (Example 10)", "result": "comparable or even surpassing both benzalkonium chloride and glutaraldehyde in function"}, {"measurement": "biocidal effect vs benzalkonium chloride", "setting": "[11]; liquid disinfection compound, 1-5% (Example 8)", "result": "comparable or even surpassing benzalkonium chloride in function"}, {"measurement": "biocidal effect vs normal biocide package", "setting": "[11]; moisturizing crème / skin- or face-care product (Example 35)", "result": "comparable or even better than the normal biocide package"}, {"measurement": "performance vs MIT/BIT system", "setting": "[11]; precoat composition containing SBR, 0.5% NBDA (Example 24)", "result": "same performance as the origin"}, {"measurement": "biocidal effect vs normal biocide package", "setting": "[11]; soap (Example 38)", "result": "comparable or even better than the normal biocide package"}, {"measurement": "biocidal effect vs normal biocide package", "setting": "[11]; stabilized suspension, MIT and BIT replaced (Example 18)", "result": "comparable and better than the normal biocide package"}, {"measurement": "biocidal effect vs chlorine based solutions", "setting": "[11]; swimmingpool water (Example 36)", "result": "comparable or even better than chlorine based traditional solutions"}, {"measurement": "biocidal effect vs benzoate", "setting": "[11]; toothpaste, benzoate replaced with similar concentration (Example 34)", "result": "comparable or even better than benzoate"}, {"measurement": "biocidal effect vs benzalkonium chloride", "setting": "[11]; waterborne cooling compound, 1-5% (Example 12)", "result": "comparable or surpassing benzalkonium chloride"}, {"measurement": "biocidal effect vs benzalkonium chloride", "setting": "[11]; watersystems for toilets, washing facilities, 1-5% (Example 14)", "result": "comparable to benzalkonium chloride"}, {"measurement": "pH", "setting": "[12]", "result": "around 11.1"}]}
